Measurements published in patent US10477864B2, “Microbiocidal quinoline (thio)carboxamide derivatives” (priority 2016, dated 2019).

Legend:
[1] = test system: Botryotinia fuckeliana (Botrytis cinerea); experiment: Botryotinia fuckeliana (Botrytis cinerea) / liquid culture (gray mould); assay type: cell-based; conditions: 72 h, read-out: control of Botryotinia fuckeliana
Fusarium culmorum [2] = experiment: microbe, parasite or virus in culture; assay type: cell-based; conditions: read-out: control of Fusarium culmorum
Fusarium culmorum [3] = experiment: whole plant or invertebrate; assay type: in vivo; conditions: in Triticum aestivum, read-out: control of Fusarium culmorum
[4] = test system: Glomerella lagenarium (Colletotrichum lagenarium); experiment: Glomerella lagenarium (Colletotrichum lagenarium) / liquid culture (anthracnose); assay type: cell-based; conditions: Colletotrichum orbiculare; read-out: control of Glomerella lagenarium

Compound	melting point [°C]	inhibition of growth at 200 ppm [1] [%]	inhibition of growth at 200 ppm (Fusarium culmorum [2]) [%]	pest or weed control at 200 ppm (Fusarium culmorum [3]) [%]	inhibition of growth at 200 ppm [4] [%]
CC(C)CC(C)(Cc1ccccc1)NC(=O)c1cnc2c(C#N)cccc2c1 (centres unmarked)	160 to 162	–	–	–	–
CC(C)(Cc1ccccc1OC(F)(F)F)NC(=O)c1cnc2ccccc2c1 [Compound E-3, N-[1,1-dimethyl-2-[2-(trifluoromethoxy)phenyl]ethyl]quinoline-3-carboxamide]	145 to 149	≥ 80	–	–	–
CC(C#N)(Cc1ccccc1F)NC(=O)c1cnc2ccccc2c1 (centres unmarked) [Compound E-4, N-[1-cyano-2-(2-fluorophenyl)-1-methyl-ethyl]quinoline-3-carboxamide]	134 to 139	–	≥ 80	–	–
CC(C#N)(Cc1ccccc1Cl)NC(=O)c1cnc2c(F)cccc2c1 (centres unmarked) [Compound E-18, N-[2-(2-chlorophenyl)-1-cyano-1-methyl-ethyl]-8-fluoro-quinoline-3-carboxamide]	198 to 203	≥ 80	≥ 80	–	–
COc1ccc2ncc(C(=O)NC(C)(Cc3ccccc3)CC(C)C)cc2c1 (centres unmarked) [Compound E-63, N-(1-benzyl-1,3-dimethyl-butyl)-6-methoxy-quinoline-3-carboxamide]	102 to 105	≥ 80	–	–	–
CC(C)CC(C)(Cc1ccccc1)NC(=O)c1cnc2cccc(Cl)c2c1 (centres unmarked) [Compound E-64, N-(1-benzyl-1,3-dimethyl-butyl)-5-chloro-quinoline-3-carboxamide]	50 to 60	≥ 80	≥ 80	–	–
CC(C)CC(C)(Cc1ccccc1)NC(=O)c1cnc2cc(C#N)ccc2c1 (centres unmarked) [Compound E-67, N-(1-benzyl-1,3-dimethyl-butyl)-7-cyano-quinoline-3-carboxamide]	170 to 172	≥ 80	≥ 80	≥ 80	–
CC(Cc1ccccc1)(CC(F)(F)F)NC(=O)c1cnc2cccc(Cl)c2c1 (centres unmarked) [Compound E-68, N-(1-benzyl-3,3,3-trifluoro-1-methyl-propyl)-5-chloro-quinoline-3-carboxamide]	85 to 88	–	≥ 80	–	–
CC(Cc1ccccc1)(CC(F)(F)F)NC(=O)c1cnc2cc(C#N)ccc2c1 (centres unmarked) [Compound E-70, N-(1-benzyl-3,3,3-trifluoro-1-methyl-propyl)-7-cyano-quinoline-3-carboxamide]	172 to 174	≥ 80	≥ 80	≥ 80	–
Cc1cccc2ncc(C(=O)NC(C)(Cc3ccccc3)CC(C)C)cc12 (centres unmarked) [Compound E-85, N-(1-benzyl-1,3-dimethyl-butyl)-5-methyl-quinoline-3-carboxamide]	79 to 81	≥ 80	≥ 80	≥ 80	–
CC(C)CC(C)(Cc1ccccc1)NC(=O)c1cnc2cccc(O)c2c1 (centres unmarked) [Compound E-87, N-(1-benzyl-1,3-dimethyl-butyl)-5-hydroxy-quinoline-3-carboxamide]	90 to 95	≥ 80	≥ 80	–	≥ 80
CC(Cc1ccccc1)(CC(F)(F)F)NC(=O)c1cnc2c(F)cccc2c1Cl (centres unmarked) [Compound E-96, N-(1-benzyl-3,3,3-trifluoro-1-methyl-propyl)-4-chloro-8-fluoro-quinoline-3-carboxamide]	–	≥ 80	≥ 80	≥ 80	≥ 80
Cc1c(C(=O)NC(C)(Cc2ccccc2)CC(F)(F)F)cnc2c(C#N)cccc12 (centres unmarked) [Compound E-105, N-(1-benzyl-3,3,3-trifluoro-1-methyl-propyl)-8-cyano-4-methyl-quinoline-3-carboxamide]	194 to 197	–	≥ 80	≥ 80	–
Cc1c(C(=O)NC(C)(Cc2ccccc2)CC(C)C)cnc2c(Cl)cccc12 (centres unmarked) [Compound E-107, N-(1-benzyl-1,3-dimethyl-butyl)-8-chloro-4-methyl-quinoline-3-carboxamide]	65 to 70	≥ 80	≥ 80	≥ 80	–
Cc1nc2c(Cl)cccc2cc1C(=O)NC(C)(Cc1ccccc1)CC(F)(F)F (centres unmarked) [Compound E-110, N-(1-benzyl-3,3,3-trifluoro-1-methyl-propyl)-8-chloro-2-methyl-quinoline-3-carboxamide]	176 to 179	≥ 80	≥ 80	–	–
CC(Cc1ccccc1)(CC1CCC1)NC(=O)c1cnc2ccccc2c1 (centres unmarked) [Compound E-111, N-(1-benzyl-2-cyclobutyl-1-methyl-ethyl)quinoline-3-carboxamide]	88 to 90	≥ 80	≥ 80	–	≥ 80
CC(Cc1ccccc1)(CC(F)(F)F)NC(=S)c1cnc2c(F)cccc2c1 (centres unmarked) [Compound E-115, N-(1-benzyl-3,3,3-trifluoro-1-methyl-propyl)-8-fluoro-quinoline-3-carbothioamide]	173 to 175	≥ 80	≥ 80	–	≥ 80
CC(C)CC(C)(Cc1ccccc1)NC(=O)c1cc2cccc(F)c2nc1F (centres unmarked) [Compound E-125, N-(1-benzyl-1,3-dimethyl-butyl)-2,8-difluoro-quinoline-3-carboxamide]	–	≥ 80	≥ 80	≥ 80	≥ 80
C[C@](Cc1ccccc1)(CC(F)(F)F)NC(=O)c1cnc2c(F)cccc2c1 [Compound F-11, N-[(1S)-1-benzyl-3,3,3-trifluoro-1-methyl-propyl]-8-fluoro-quinoline-3-carboxamide]	–	≥ 80	≥ 80	≥ 80	≥ 80
C[C@@](Cc1ccccc1)(CC(F)(F)F)NC(=O)c1cnc2c(F)cccc2c1 [Compound F-12, N-[(1R)-1-benzyl-3,3,3-trifluoro-1-methyl-propyl]-8-fluoro-quinoline-3-carboxamide]	–	≥ 80	≥ 80	≥ 80	≥ 80
CC(C)C[C@](C)(Cc1ccccc1)NC(=O)c1cnc2cc(F)ccc2c1 [Compound F-13, N-[(1R)-1-benzyl-1,3-dimethyl-butyl]-7-fluoro-quinoline-3-carboxamide]	–	≥ 80	≥ 80	≥ 80	≥ 80
CC(C)C[C@@](C)(Cc1ccccc1)NC(=O)c1cnc2cc(F)ccc2c1 [Compound F-14, N-[(1S)-1-benzyl-1,3-dimethyl-butyl]-7-fluoro-quinoline-3-carboxamide]	–	≥ 80	≥ 80	≥ 80	≥ 80
C=C(C)C[C@@](C)(Cc1ccccc1)NC(=O)c1cnc2c(F)c(F)ccc2c1 [Compound F-19, N-[(1S)-1-benzyl-1,3-dimethyl-but-3-enyl]-7,8-difluoro-quinoline-3-carboxamide]	–	≥ 80	≥ 80	≥ 80	≥ 80
CC(C)C[C@](C)(Cc1ccccc1)NC(=O)c1cnc2c(F)c(F)ccc2c1 [Compound F-21, N-[(1R)-1-benzyl-1,3-dimethyl-butyl]-7,8-difluoro-quinoline-3-carboxamide]	–	≥ 80	≥ 80	≥ 80	≥ 80
Cc1cccc2cc(C(=O)N[C@](C)(Cc3ccccc3)CC(F)(F)F)cnc12 [Compound F-28, N-[(1R)-1-benzyl-3,3,3-trifluoro-1-methyl-propyl]-8-methyl-quinoline-3-carboxamide]	–	≥ 80	≥ 80	≥ 80	≥ 80
C[C@@](Cc1ccccc1)(CC(F)F)NC(=O)c1cnc2c(F)cccc2c1 [Compound F-31, N-[(1R)-1-benzyl-3,3-difluoro-1-methyl-propyl]-8-fluoro-quinoline-3-carboxamide]	–	≥ 80	≥ 80	≥ 80	≥ 80
Cc1nc2c(F)cccc2cc1C(=O)N[C@@](C)(Cc1ccccc1)CC(F)(F)F [Compound F-33, N-[(1S)-1-benzyl-3,3,3-trifluoro-1-methyl-propyl]-8-fluoro-2-methyl-quinoline-3-carboxamide]	–	≥ 80	≥ 80	≥ 80	≥ 80
C[C@](Cc1ccccc1)(CC(F)(F)F)NC(=O)c1cnc2c(Cl)cccc2c1 [Compound F-35, N-[(1S)-1-benzyl-3,3,3-trifluoro-1-methyl-propyl]-8-chloro-quinoline-3-carboxamide]	–	≥ 80	≥ 80	≥ 80	≥ 80
C[C@@](Cc1ccccc1)(CC(F)(F)F)NC(=O)c1cnc2c(Cl)cccc2c1 [Compound F-36, N-[(1R)-1-benzyl-3,3,3-trifluoro-1-methyl-propyl]-8-chloro-quinoline-3-carboxamide]	–	≥ 80	≥ 80	≥ 80	≥ 80
